Experimental data reported in patent US9328083B2, “2-aminated methylene or 2-esterified methylene tanshinone derivatives, and preparation method and application thereof” (HANGZHOU BENSHENG PHARMACEUTICAL CO., LTD., priority 2011, dated 2016).
In brackets after ≈: the same amount, converted by molar mass.

Key:
[1] = test system: RPMI8226 (multiple myeloma); assay: MTT growth inhibition of multiple myeloma cells, 72 h; type: cell-based, human; conditions: Homo sapiens, RPMI 8226, 72 h; for IC50: read-out: IC50; for IC90: read-out: IC90
Outline: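 RPMI8226 myeloma cells, 6000 per well in 1640 medium with 10% FBS, exposed to compounds at a range of concentrations (diluted from 10 mg/mL DMSO stock) for 72 h at 37° C, 5% CO2. Viable cells then determined by MTT.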

[2] = test system: SK-OV-3 (ovarian cancer cell); assay: MTT growth inhibition of human solid tumor cells, 72 h; type: cell-based; conditions: Homo sapiens, SK-OV-3, 72 h; for IC50: read-out: IC50; for IC90: read-out: IC90
Outline: (§1)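 After a 24 h settling period at 37° C and 5% CO2, cultures of 4000 cells per well in high-glucose DMEM with 10% serum received the tanshinone I derivatives at varied concentrations; surviving cell numbers were then measured.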

[3] = test system: Hep G2 (human liver cancer cell); assay: as above; type: cell-based; conditions: Homo sapiens, HepG2, Hep G2, 72 h; for IC50: read-out: IC50; for IC90: read-out: IC90
Outline: as §1

[4] = test system: U87 MG (malignant glioma cell); assay: as above; type: cell-based; conditions: Homo sapiens, U-87 MG, U87-MG, 72 h; for IC50: read-out: IC50; for IC90: read-out: IC90
Outline: as §1

[5] = test system: Hep-2 (laryngeal carcinoma); assay: as above; type: cell-based; conditions: Homo sapiens, HEp-2, 72 h; for IC50: read-out: IC50; for IC90: read-out: IC90
Outline: as §1

A549 (human lung cancer) = assay: as above; type: cell-based; conditions: Homo sapiens, A549, 72 h; for IC50: read-out: IC50; for IC90: read-out: IC90
Outline: as §1

[6] = test system: MGC 803 (human gastric cancer cell); assay: as above; type: cell-based; conditions: Homo sapiens, MGC-803, 72 h; for IC50: read-out: IC50; for IC90: read-out: IC90
Outline: as §1

[7] = test system: CaES-17 (esophageal cancer cell); assay: as above; type: cell-based; conditions: Homo sapiens, CaEs17, CaEs-17, 72 h; for IC50: read-out: IC50; for IC90: read-out: IC90
Outline: as §1

[8] = test system: PANC-1 (pancreatic cancer); assay: as above; type: cell-based; conditions: Homo sapiens, PANC-1, 72 h; for IC50: read-out: IC50; for IC90: read-out: IC90
Outline: as §1

[9] = test system: Hela (human cervical cancer cell); assay: as above; type: cell-based; conditions: Homo sapiens, HeLa, 72 h; for IC50: read-out: IC50; for IC90: read-out: IC90
Outline: as §1

[10] = test system: CNE (nasopharyngeal carcinoma cell); assay: as above; type: cell-based; conditions: Homo sapiens; for IC50: read-out: IC50; for IC90: read-out: IC90
Outline: as §1

[11] = test system: RKO (human colon adenocarcinoma cell); assay: as above; type: cell-based; conditions: Homo sapiens; for IC50: read-out: IC50; for IC90: read-out: IC90
Outline: as §1

[12] = test system: Becap37 (human breast cancer cell); assay: as above; type: cell-based; conditions: Homo sapiens, Becap-37, 72 h; for IC50: read-out: IC50; for IC90: read-out: IC90
Outline: as §1

MG63 (osteosarcoma) = assay: as above; type: cell-based; conditions: Homo sapiens, MG-63, 72 h; for IC50: read-out: IC50; for IC90: read-out: IC90
Outline: as §1

PC-3 (prostate cancer) = assay: as above; type: cell-based; conditions: Homo sapiens, PC-3, 72 h; for IC50: read-out: IC50; for IC90: read-out: IC90
Outline: as §1

[13] = test system: K562/adr (drug-resistant, chronic myeloid leukemia, CML); assay: MTT growth inhibition of leukemia cells, 72 h; type: cell-based, human; conditions: Homo sapiens, K562/Adr; for IC50: read-out: IC50; for IC90: read-out: IC90
Outline: (§2)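 MTT assay of viable cells following 72 h compound treatment at 37 °C. Cultures contained 6000 cells per well in RPMI-1640 plus 10% fetal bovine serum.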

[14] = test system: H9 (acute lymphoblastic leukemia, ALL); assay: MTT growth inhibition of leukemia cells, 72 h; type: cell-based, human; conditions: Homo sapiens, H9, 72 h; for IC50: read-out: IC50; for IC90: read-out: IC90
Outline: as §2

[15] = test system: Jurkat (acute lymphoblastic leukemia, ALL); assay: MTT growth inhibition of leukemia cells, 72 h; type: cell-based, human; conditions: Homo sapiens, 72 h; for IC50: read-out: IC50; for IC90: read-out: IC90
Outline: as §2

[16] = test system: NB4 (acute promyelocytic leukemia, AML); assay: MTT growth inhibition of leukemia cells, 72 h; type: cell-based, human; conditions: Homo sapiens, NB4, 72 h; for IC50: read-out: IC50; for IC90: read-out: IC90
Outline: as §2

[17] = test system: Kasumi-1 (acute myeloid leukemia M2 type, AML-M2); assay: MTT growth inhibition of leukemia cells, 72 h; type: cell-based, human; conditions: Homo sapiens, Kasumi-1, 72 h; for IC50: read-out: IC50; for IC90: read-out: IC90
Outline: as §2

IC50 [1] [µg/mL] | IC90 [1] [µg/mL] | IC50 [2] [µg/mL] | IC90 [2] [µg/mL] | IC50 [3] [µg/mL] | IC90 [3] [µg/mL] | IC50 [4] [µg/mL] | IC90 [4] [µg/mL] | IC50 [5] [µg/mL] | IC90 [5] [µg/mL] | IC50 (A549 (human lung cancer)) [µg/mL] | IC90 (A549 (human lung cancer)) [µg/mL] | IC50 [6] [µg/mL] | IC90 [6] [µg/mL] | IC50 [7] [µg/mL] | IC90 [7] [µg/mL] | IC50 [8] [µg/mL] | IC90 [8] [µg/mL] | IC50 [9] [µg/mL] | IC90 [9] [µg/mL] | Structure (SMILES) | further results
6.16 (≈ 15.3 µM) | 16 (≈ 39.8 µM) | > 16 | > 16 | 13.5 (≈ 33.6 µM) | > 16 | 6.5 (≈ 16.2 µM) | > 16 | 9.23 (≈ 23 µM) | > 16 | 1.59 (≈ 3.96 µM) | 10 (≈ 24.9 µM) | 7.82 (≈ 19.5 µM) | > 16 | ≥ 19.3 | > 16 | 1.57 (≈ 3.91 µM) | 16.7 (≈ 41.6 µM) | 7.49 (≈ 18.7 µM) | > 16 | Cc1c(CNCC2CCCCC2)oc2c1C(=O)C(=O)c1c-2ccc2c(C)cccc12 [BS-TA-B06] | IC50 [10]: 11.8 µg/mL (≈ 29.4 µM); IC90 [10]: > 16 µg/mL; IC50 [11]: 3.42 µg/mL (≈ 8.52 µM); IC90 [11]: > 16 µg/mL; IC50 [12]: 5.9 µg/mL (≈ 14.7 µM); IC90 [12]: > 16 µg/mL; IC50 (MG63 (osteosarcoma)): 4.76 µg/mL (≈ 11.9 µM); IC90 (MG63 (osteosarcoma)): > 16 µg/mL; IC50 (PC-3 (prostate cancer)): 10.3 µg/mL (≈ 25.8 µM); IC90 (PC-3 (prostate cancer)): 24.5 µg/mL (≈ 60.9 µM); IC50 [13]: 0.81 µg/mL (≈ 2.02 µM); IC90 [13]: 1.8 µg/mL (≈ 4.48 µM); IC50 [14]: 3.2 µg/mL (≈ 7.97 µM); IC90 [14]: 14.1 µg/mL (≈ 35.1 µM); IC50 [15]: 5.25 µg/mL (≈ 13.1 µM); IC90 [15]: 16 µg/mL (≈ 39.8 µM); IC50 [16]: 2.13 µg/mL (≈ 5.31 µM); IC90 [16]: 7.29 µg/mL (≈ 18.2 µM); IC50 [17]: 0.57 µg/mL (≈ 1.42 µM); IC90 [17]: 1.73 µg/mL (≈ 4.31 µM)
3.46 (≈ 9.63 µM) | 10.2 (≈ 28.3 µM) | > 16 | > 16 | 8.46 (≈ 23.5 µM) | > 16 | 10.1 (≈ 28 µM) | 21.2 (≈ 59 µM) | 9.45 (≈ 26.3 µM) | > 16 | 5.98 (≈ 16.6 µM) | 21.9 (≈ 61.1 µM) | 6.9 (≈ 19.2 µM) | 17.1 (≈ 47.7 µM) | 9.16 (≈ 25.5 µM) | 19.7 (≈ 54.8 µM) | 1.33 (≈ 3.7 µM) | 8.21 (≈ 22.8 µM) | 6.86 (≈ 19.1 µM) | 18.5 (≈ 51.4 µM) | Cc1c(CNCC2CC2)oc2c1C(=O)C(=O)c1c-2ccc2c(C)cccc12 [BS-TA-B07] | IC50 [10]: 9 µg/mL (≈ 25 µM); IC90 [10]: > 16 µg/mL; IC50 [11]: 0.93 µg/mL (≈ 2.59 µM); IC90 [11]: 17 µg/mL (≈ 47.4 µM); IC50 [12]: 5.23 µg/mL (≈ 14.6 µM); IC90 [12]: 14.3 µg/mL (≈ 39.9 µM); IC50 (MG63 (osteosarcoma)): 8.14 µg/mL (≈ 22.6 µM); IC90 (MG63 (osteosarcoma)): > 16 µg/mL; IC50 (PC-3 (prostate cancer)): 7.05 µg/mL (≈ 19.6 µM); IC90 (PC-3 (prostate cancer)): 16 µg/mL (≈ 44.5 µM); IC50 [13]: 3.22 µg/mL (≈ 8.96 µM); IC90 [13]: 6.38 µg/mL (≈ 17.8 µM); IC50 [14]: 2.9 µg/mL (≈ 8.07 µM); IC90 [14]: 7.5 µg/mL (≈ 20.9 µM); IC50 [15]: 3.11 µg/mL (≈ 8.65 µM); IC90 [15]: 9.52 µg/mL (≈ 26.5 µM); IC50 [16]: 1.35 µg/mL (≈ 3.76 µM); IC90 [16]: 3.74 µg/mL (≈ 10.4 µM); IC50 [17]: 1.07 µg/mL (≈ 2.98 µM); IC90 [17]: 3.86 µg/mL (≈ 10.7 µM)
15.8 (≈ 43.8 µM) | > 16 | > 16 | > 16 | > 16 | > 16 | > 16 | > 16 | 15.8 (≈ 43.6 µM) | > 16 | 1.28 (≈ 3.54 µM) | 6 (≈ 16.6 µM) | > 16 | > 16 | > 16 | > 16 | 0.88 (≈ 2.43 µM) | 5.82 (≈ 16.1 µM) | 15.6 (≈ 43 µM) | > 16 | CCCCNCc1oc2c(c1C)C(=O)C(=O)c1c-2ccc2c(C)cccc12 [BS-TA-B10] | IC50 [10]: > 16 µg/mL; IC90 [10]: > 16 µg/mL; IC50 [11]: 5.47 µg/mL (≈ 15.1 µM); IC90 [11]: > 16 µg/mL; IC50 [12]: > 16 µg/mL; IC90 [12]: > 16 µg/mL; IC50 (MG63 (osteosarcoma)): > 16 µg/mL; IC90 (MG63 (osteosarcoma)): > 16 µg/mL; IC50 (PC-3 (prostate cancer)): > 16 µg/mL; IC90 (PC-3 (prostate cancer)): > 16 µg/mL; IC50 [13]: 0.76 µg/mL (≈ 2.1 µM); IC90 [13]: 1.8 µg/mL (≈ 4.98 µM); IC50 [14]: 6 µg/mL (≈ 16.6 µM); IC90 [14]: > 16 µg/mL; IC50 [15]: > 16 µg/mL; IC90 [15]: > 16 µg/mL; IC50 [16]: 5.79 µg/mL (≈ 16 µM); IC90 [16]: 15.4 µg/mL (≈ 42.7 µM); IC50 [17]: 0.4 µg/mL (≈ 1.11 µM); IC90 [17]: 0.92 µg/mL (≈ 2.55 µM)
